From publication PMC6201930 (PLoS ONE, 2018)
Several values for one entry are separate records, joined by “and”; a condition that tells them apart may be missing. Equal values may be shown once. Read-outs that look alike come from different tables or passages of the source.

Assays:
[1] = Neuromast toxicity assay (DASPEI staining); details: zebrafish, zebrafish embryos 5 dpf, neuromasts (hair cells), other: embryos exposed to the drug in 24-well plates
Description: All neuromast cytotoxicity assays were done at Biobide–BBD Biophenix SL (Gipuzkoa, Spain). […] Compounds were tested at 5 doses. After 24 hours of exposure embryos were incubated in DASPEI (2-(4-(dimethylamino)styryl) -N-Ethylpyridinium Iodide) for neuromast staining. Images of each embryo were taken and neuromasts counted. A compound was classified as ototoxic when the number of neuromasts in the treated group was less than that in the untreated control group (One Way ANOVA, multiple comparisons vs. vehicle).

[2] = Cytotoxicity in stimulated PBMCs (CellTitre-Glo ATP); details: human
Source text: (§1) When considering compounds for potential readthrough therapy it is important to monitor cellular and animal safety. In order to determine the most promising compounds to further evaluate in in vivo safety, we measured cytotoxicity in two different cell types. We used activated human peripheral blood mononuclear cells (PBMCs) (Table 2 and Fig 2D and 2E). PBMCs are a primary cell that when activated with phytohaemagglutinin (PHA) expand quickly and are commonly used as an in vitro surrogate for rapidly growing cells in the human body to evaluate cytotoxicity. Prior to advancing compounds into human studies, safety evaluation in rodents is performed. As an in vitro surrogate for rodent toxicity, we used primary mouse myoblasts.
(§2) Frozen human Peripheral Blood Mononuclear Cells (PBMCs) were obtained from […] (Alameda, CA, Cat# PB003F) from a single donor. […] Plates were incubated at 37°C with 5% CO2 for 4 hours prior to compound treatment. Compounds were serially diluted and added to the plates. Plates were incubated at 37°C, 5% CO2 incubator, for 72 hours prior to determinations of ATP levels. Cell viability was determined using a chemiluminescent assay to monitor adenosine triphosphate (ATP) levels in live cells (CellTitre-Glo; CTG; Promega, Cat#G7571). Methods were performed per the manufacturer’s instructions.

[3] = tested on: activated human peripheral blood mononuclear cells (PBMCs); test: as above; details: read-out: Stimulated PBMC CC50, individual determinations (S1 File)
Source text: as §1, §2

[4] = Cytotoxicity in myoblasts; details: mouse, primary mouse myoblasts
Source text: as §1

[5] = tested on: p53 R213* UGA premature termination codon in HDQ-P1 mammary carcinoma cells; test: HDQ-p53UGA213 readthrough assay (full-length p53, MSD immunoassay); assay type: cell-based, human; details: for HDQ-p53UGA213 (Maxfold): maximum readthrough activity above background
Description: We utilized HDQ-P1 mammary carcinoma cells, which are homozygous for R213*, a UGA premature termination codon in the gene for the tumor suppressor protein p53 [30]. […] Western blot hybridization and Meso Scale Discovery (MSD) immunoassay detection of p53 were done as previously described. […] Cells (45K per well) were grown in 96-well plates and treated with compounds for 24 hours. […] Cells were lysed with 60 μl per well of lysis buffer (20 mM Tris-HCL, pH 7.5, 1 mM EGTA, 1 mM EDTA,150 mM Nacl, 0.5% Triton X100) for one hour at room temperature and 30 μl of lysate per well were transferred to the coated plate and incubated overnight at 4 °C. […] Plates were then washed three times with PBS-T and 30 μl of 0.25 μ/ml goat anti-rabbit IgG-Sulfo-tag antibody (MSD) in TBS-C was added and incubated for 1 hour at room temperature. Plates were then washed three times with PBS-T and 150 μl read buffer (MSD) was added. Plates were read immediately in a SECTOR S 600 (MSD).

[6] = tested on: fLuc mRNA harboring a UGA nonsense mutation at codon 190 (fLuc-190-NS); assay type: biochemical, rabbit
Source text: ThefLuc-190-NS assay is an in vitro rabbit reticulocyte lysate translation of an fLuc mRNA harboring a UGA nonsense mutation at codon 190 (fLuc-190-NS). It is believed that positively charged aminoglycosides are poorly taken up by cells, and we used this cell-free readthrough assay to eliminate the potential variable of cell uptake when measuring readthrough potency. […] Readthrough protein was detected using a HA-HIS MSD immunoassay described previously.
This cell-free translation assay used synthetic LUC mRNAs harboring an EMCV IRES and LUC codon 190-UGA premature stop codon prepared using the MegaScript in vitro transcription kit (Ambion). Translation reactions were done with the Rabbit Reticulocyte Lysate System (Promega) with 100 ng RNA and increasing concentrations of aminoglycosides. The amount of luminescence produced was determined after approximately 4 hours using a Viewlux CCD imager (Perkin-Elmer). Fold suppression over background was calculated as (aminoglycoside light units/PBS light units).

[7] = tested on: tGFP-CFTR542X-HA-HIS construct (codon 542 UGA) in 293H cells; test: tGFP-542X readthrough assay (HA-HIS MSD immunoassay); assay type: cell-based, human
[8] = tested on: primary mouse myoblasts; test: Cytotoxicity in myoblasts; details: read-out: Myoblast CC50; individual determinations (S1 File)
Source text: as §1

[9] = Neuromast CC50, AVERAGE (S1 File)
[10] = Neuromast CC50, individual determinations (S1 File)
[11] = Stimulated PBMC CC50, AVERAGE (S1 File)
[12] = Myoblast CC50, AVERAGE (S1 File)
[13] = Myoblast CC50, individual determinations (S1 File)
[14] = concentration required to double the level of full-length p53 protein, average ± SD, at least three experiments, highest concentration 300 μM
[15] = individual experiments (S1 File)
[16] = individual experiments (S1 File), max fold
[17] = AVERAGE (S1 File), unit not given for EC5X
[18] = individual experiments (S1 File), unit not printed for EC5X (EC2X of the sheet in uM)
[19] = 293H cells, 24 hours, average ± SD
[20] = maximum readthrough above background, average ± SD
[21] = individual experiments (S1 File), listed as PTC-0302307 (C1)
[22] = individual experiments (S1 File), unit not printed for EC5X (EC2X of the sheet in uM), listed as PTC-0302307 (C1)

Structure (SMILES)	CC50 at 24 h [1, 9] [µM]	CC50 at 24 h [1, 10] [µM]	HDQ-p53UGA213 EC2X ([5]; AVERAGE (S1 File)) [µM]	HDQ-p53UGA213 max ([5]; AVERAGE (S1 File))	HDQ-p53UGA213 EC2X [5, 14] [µM]	HDQ-p53UGA213 (Maxfold) ([5]; average ± SD) [fold]	fLuc-190-NS EC2X ([6]; AVERAGE (S1 File)) [µM]	fLuc-190-NS MaxFold ([6]; AVERAGE (S1 File))	fLuc-190-NS EC5X [6, 17]	fLuc-190-NS EC2X ([6]; cell-free, average ± SD) [µM]	fLuc-190-NS MaxFold ([6]; cell-free, average ± SD) [fold]	fLuc-190-NS EC2X [6, 15]	fLuc-190-NS MaxFold [6, 15]	fLuc-190-NS EC5X [6, 18]	tGFP-542X EC2X [7, 19] [µM]	tGFP-542X EC2X ([7]; AVERAGE (S1 File)) [µM]	tGFP-542X Maxfold ([7]; AVERAGE (S1 File))	tGFP-542X EC2X [7, 15]	tGFP-542X Maxfold [7, 15]	tGFP-542X Maxfold [7, 20] [fold]	also measured
CN[C@@H]1[C@@H](O)[C@@H](O[C@@H]2[C@@H](O)[C@H](O[C@H]3O[C@H](CO)[C@@H](O)[C@H](O)[C@H]3N)[C@@H](N)C[C@H]2N)OC[C@H]1O [Gentamicin A, gentamicin A]	17	17	585.5	2.7	586 ± 100	3 ± 0.4	0.45	6.7	2.0	0.45 ± 0.015	6.7 ± 0.4	0.44 µM and 0.47 µM and 0.45 µM	6.38 and 6.62 and 7.20	1.95 and 2.14	385 ± 123	385.2	3.8	490.42 µM and 415.81 µM and 249.27 µM	3.32 and 4.14 and 3.99	4 ± 0.4	CC50 at 72 h [2, 11]: 3620 µM; CC50 [3]: > 1250 µM and 3620 µM; CC50 [4, 12]: 6210 µM; CC50 [4, 13]: 6210 µM; HDQ-p53UGA213 EC2X [5, 15]: 658.30 µM and 626.86 µM and 471.32 µM; HDQ-p53UGA213 max [5, 16]: 2.50 and 3.24 and 2.45; tGFP-542X EC5X [7, 18]: >1000
CN[C@@H]1[C@@H](O)[C@@H](O[C@@H]2[C@@H](O)[C@H](O[C@H]3O[C@H]([C@@H](C)NC)CC[C@H]3N)[C@@H](N)C[C@H]2N)OC[C@]1(C)O [Gentamicin C1, gentamicin C1]	9.4	9.4	311.4	4.8	311 ± 321	5 ± 3	1.1	18.9	2.6	1.061 ± 0.262	19 ± 2				439 ± 192	439.1	3.4			3 ± 2	CC50 at 72 h ([2]; Stimulated PBMC CC50, individual determinations (S1 File)): > 1250 µM; CC50 ([3]; listed as PTC-0302307 (C1)): > 1000 µM; HDQ-p53UGA213 EC2X ([5]; concentration required to double the level of full-length p53 protein, average ± SD, at least three experiments, highest concentration 300 μM, listed as C1): triple digit; HDQ-p53UGA213 EC2X [5, 21]: 74.03 µM and 776.89 µM and 269.47 µM and 125.28 µM; HDQ-p53UGA213 max ([5]; individual experiments (S1 File), max fold, listed as PTC-0302307 (C1)): 6.40 and 2.10 and 2.50 and 8.00; fLuc-190-NS EC2X [6, 21]: 1.36 µM and 0.90 µM and 0.92 µM; fLuc-190-NS MaxFold [6, 21]: 18.25 and 17.61 and 20.78; fLuc-190-NS EC5X [6, 22]: 2.89 and 2.68 and 2.37; tGFP-542X EC5X [7, 17]: 825.7; tGFP-542X EC2X [7, 21]: 303 µM and 575 µM and >1000 µM; tGFP-542X Maxfold [7, 21]: 6 and 2 and 1.70; tGFP-542X EC5X [7, 22]: 826 and >1000
CN[C@@H]1[C@@H](O)[C@@H](O[C@@H]2[C@@H](O)[C@H](O[C@H]3O[C@H]([C@@H](C)N)CC[C@H]3N)[C@@H](N)C[C@H]2N)OC[C@]1(C)O [Gentamicin C2, gentamicin C2]	2.8	2.8	141.9	5.8	142 ± 86	6 ± 5	1.1	97.2	1.9	1.086 ± 0.763	97 ± 12	1.97 µM and 0.62 µM and 0.67 µM	84.91 and 97.65 and 109.15	2.76 and 1.44 and 1.41	266 ± 44	265.9	8.9	225 µM and 260 µM and 312.48 µM	11 and 9 and 7.29	9 ± 2	CC50 at 72 h [2, 11]: 2180 µM; CC50 [3]: 3800 µM and 566 µM; CC50 [4, 12]: 3780 µM; CC50 [8]: 6100 µM and 4310 µM and 911 µM; HDQ-p53UGA213 EC2X ([5]; concentration required to double the level of full-length p53 protein, average ± SD, at least three experiments, highest concentration 300 μM, listed as C2): triple digit; HDQ-p53UGA213 EC2X [5, 15]: 34.99 µM and 16.61 µM and 97.73 µM and 112.3 µM and 133.88 µM and 91.16 µM and 121.67 µM and 256.3 µM and 179.64 µM and 255.57 µM and 260.59 µM; HDQ-p53UGA213 max [5, 16]: 4.1 and 15.8 and 4 and 3.2 and 5.2 and 3.9 and 2.4 and 15.7 and 3.5 and 3; tGFP-542X EC5X [7, 17]: 653.9; tGFP-542X EC5X [7, 18]: 566 and 647 and 748.53
CN[C@@H]1[C@@H](O)[C@@H](O[C@@H]2[C@@H](O)[C@H](O[C@H]3OC(CN)=CC[C@H]3N)[C@@H](N)C[C@H]2N)OC[C@]1(C)O [Sisomycin]							2.6	4.0		2.596 ± 0.428	4 ± 0.5	2.96 µM and 2.70 µM and 2.13 µM	3.55 and 3.95 and 4.47	>30	>1000		1.3	>1000 µM	1.27 and 1.38 and 1.37	1 ± 0.1	tGFP-542X EC5X [7, 18]: >1000
CN[C@@H]1[C@@H](O)[C@@H](O[C@@H]2[C@@H](O)[C@H](O[C@H]3O[C@H]([C@H](C)N)CC[C@H]3N)[C@@H](N)C[C@H]2N)OC[C@]1(C)O [Gentamicin C2a, gentamicin C2a]	2.7	2.7	251.7	4.2	252 ± 49	4 ± 1	1.1	32.1	2.8	1.077 ± 0.029	32 ± 5	1.08 µM and 1.10 µM and 1.05 µM	26.96 and 33.13 and 36.29	2.91 and 2.75 and 2.60	583 ± 110	582.8	2.8	691 µM and 586 µM and 471.89 µM	2.62 and 2.35 and 3.32	3 ± 0.5	CC50 at 72 h [2, 11]: 6710 µM; CC50 [3]: > 1250 µM; CC50 [4, 12]: 5680 µM; CC50 [4, 13]: 4640 µM; HDQ-p53UGA213 EC2X ([5]; concentration required to double the level of full-length p53 protein, average ± SD, at least three experiments, highest concentration 300 μM, listed as C2a): triple digit; HDQ-p53UGA213 EC2X [5, 15]: 217.36 µM and 286.09 µM; HDQ-p53UGA213 max [5, 16]: 3.40 and 5.00; tGFP-542X EC5X [7, 18]: >1000
